In patent publication US11851426B2, “Bicyclic amines as CDK2 inhibitors” (Incyte Corporation, priority 2019, dated 2023):

Molecular target: CDK2/Cyclin E1 (Homo sapiens (Human), UniProt P24941)
Assay: CDK2/Cyclin E1 HTRF enzyme activity assay
Type: biochemical
Conditions: 1 mM ATP; CDK2/Cyclin E1 0.25 nM; 60 minutes at room temperature
Description: Example A. CDK2/Cyclin E1 HTRF Enzyme Activity Assay
CDK2/Cyclin E1 enzyme activity assays utilize full-length human CDK2 co-expressed as N-terminal GST-tagged protein with FLAG-Cyclin E1 in a baculovirus expression system (Carna Product Number 04-165). Assays were conducted in white 384-well polystyrene plates in a final reaction volume of 8 μL. CDK2/Cyclin E1 (0.25 nM) was incubated with the compounds of the Examples (40 nL serially diluted in DMSO) in the presence of ATP (50 μM or 1 mM) and 50 nM ULight™-labeled eIF4E-binding protein 1 (THR37/46) peptide (PerkinElmer) in assay buffer (containing 50 mM HEPES pH 7.5, 1 mM EGTA, 10 mM MgCl2, 2 mM DTT, 0.05 mg/mL BSA, and 0.01% Tween 20) for 60 minutes at room temperature. The reactions were stopped by the addition of EDTA and Europium-labeled anti-phospho-4E-BP1 antibody (PerkinElmer), for a final concentration of 15 mM and 1.5 nM, respectively. HTRF signals were read after 1 hour at room temperature on a PHERAstar FS plate reader (BMG Labtech). Data was analyzed with IDBS XLFit and GraphPad Prism 5.0 software using a three or four parameter dose response curve to determine IC50 for each compound.

| IC50 | SMILES |
| --- | --- |
| ≤ 20 nM | CS(=O)(=O)N1CCC(Nc2nc3cc(-c4cn[nH]c4)ccn3n2)CC1 [Example 1, N-(1-(methylsulfonyl)piperidin-4-yl)-7-(1H-pyrazol-4-yl)-[1.2.4]triazolo[1,5-a]pyridin-2-amine] |
| ≤ 20 nM | CCOc1c(-c2cn[nH]c2)ccn2nc(NC3CCN(S(C)(=O)=O)CC3)nc12 [Example 2, 8-ethoxy-N-(1-(methylsulfonyl)piperidin-4-yl)-7-(1H-pyrazol-4-yl)-[1.2.4]triazolo[1,5-a]pyridin-2-amine] |
| ≤ 20 nM | CS(=O)(=O)N1CCC(Nc2nc3c(OCC4CC4)c(-c4cn[nH]c4)ccn3n2)CC1 [Example 4, 8-(cyclopropylmethoxy)-N-(1-(methylsulfonyl)piperidin-4-yl)-7-(1H-pyrazol-4-yl)-[1,2,4]triazolo[1,5-a]pyridin-2-amine] |
| ≤ 20 nM | CS(=O)(=O)N1CCC(Nc2nc3c(OC4CCOCC4)c(-c4cn[nH]c4)ccn3n2)CC1 [Example 5, N-(1-(methylsulfonyl)piperidin-4-yl)-7-(1H-pyrazol-4-yl)-8-((tetrahydro-2H-pyran-4-yl)oxy)-[1,2,4]triazolo[1,5-a]pyridin-2-amine] |
| ≤ 20 nM | COCCOc1c(-c2cn[nH]c2)ccn2nc(NC3CCN(S(C)(=O)=O)CC3)nc12 [Example 6, 8-(2-methoxyethoxy)-N-(1-(methylsulfonyl)piperidin-4-yl)-7-(1H-pyrazol-4-yl)-[1,2,4]triazolo[1,5-a]pyridin-2-amine] |
| ≤ 20 nM | CS(=O)(=O)N1CCC(Nc2nc3cc(-c4cn[nH]c4)c(F)cn3n2)CC1 [Example 7, 6-fluoro-N-(1-(methylsulfonyl)piperidin-4-yl)-7-(1H-pyrazol-4-yl)-[1,2,4]triazolo[1,5-a]pyridin-2-amine] |
| ≤ 20 nM | CS(=O)(=O)N1CCC(Nc2nc3cnc(-c4cn[nH]c4)cn3n2)CC1 [Example 8, N-(1-(methylsulfonyl)piperidin-4-yl)-6-(1H-pyrazol-4-yl)-[1,2,4]triazolo[1,5-a]pyrazin-2-amine] |
| ≤ 20 nM | CS(=O)(=O)N1CCC(Nc2nc3c(OCC(F)F)c(-c4cn[nH]c4)ccn3n2)CC1 [Example 9, 8-(2,2-difluoroethoxy)-N-(1-(methylsulfonyl)piperidin-4-yl)-7-(1H-pyrazol-4-yl)-[1,2,4]triazolo[1,5-a]pyridin-2-amine] |
| ≤ 20 nM | CS(=O)(=O)N1CCC(Nc2nc3c(OCC(F)(F)F)c(-c4cn[nH]c4)ccn3n2)CC1 [Example 10, N-(1-(methylsulfonyl)piperidin-4-yl)-7-(1H-pyrazol-4-yl)-8-(2,2,2-trifluoroethoxy)-[1,2,4]triazolo[1,5-a]pyridin-2-amine] |
| ≤ 20 nM | CS(=O)(=O)N1CCC(Nc2nc3c(OCC4CCOC4)c(-c4cn[nH]c4)ccn3n2)CC1 (centres unmarked) [Example 11, N-(1-(methylsulfonyl)piperidin-4-yl)-7-(1H-pyrazol-4-yl)-8-((tetrahydrofuran-3-yl)methoxy)-[1,2,4]triazolo[1,5-a]pyridin-2-amine] |
| ≤ 20 nM | CCOc1c(-c2cn[nH]c2)ccn2nc(N[C@H]3CCN(S(C)(=O)=O)C[C@H]3C)nc12 [Example 12, 8-ethoxy-N-((3R,4S)-3-methyl-1-(methylsulfonyl)piperidin-4-yl)-7-(1H-pyrazol-4-yl)-[1,2,4]triazolo[1,5-a]pyridin-2-amine] |
| ≤ 20 nM | CCOc1c(-c2cn[nH]c2)ccn2nc(N[C@H]3CCN(S(=O)(=O)C4CC4)C[C@H]3C)nc12 [Example 13, N-((3R,4S)-1-(cyclopropylsulfonyl)-3-methylpiperidin-4-yl)-8-ethoxy-7-(1H-pyrazol-4-yl)-[1,2,4]triazolo[1,5-a]pyridin-2-amine] |
| ≤ 20 nM | CC(C)Oc1c(-c2cn[nH]c2)ncn2nc(NC3CCN(S(C)(=O)=O)CC3)nc12 [Example 14, 8-isopropoxy-N-(1-(methylsulfonyl)piperidin-4-yl)-7-(1H-pyrazol-4-yl)-[1,2,4]triazolo[1,5-c]pyrimidin-2-amine] |
| ≤ 20 nM | CCOc1c(-c2c[nH]nc2C)ccn2nc(NC3CCN(S(C)(=O)=O)CC3)nc12 [Example 17, 8-ethoxy-7-(3-methyl-1H-pyrazol-4-yl)-N-(1-(methylsulfonyl)piperidin-4-yl)-[1,2,4]triazolo[1,5-a]pyridin-2-amine] |
| ≤ 20 nM | COC(=O)N1CCC(Oc2c(-c3cn[nH]c3)ccn3nc(NC4CCN(S(C)(=O)=O)CC4)nc23)CC1 [Example 18, Methyl 4-((2-((1-(methylsulfonyl)piperidin-4-yl)amino)-7-(1H-pyrazol-4-yl)-[1,2,4]triazolo[1,5-a]pyridin-8-yl)oxy)piperidine-1-carboxylate] |
| ≤ 20 nM | CCOc1c(-c2cn[nH]c2)ccn2nc(N[C@H]3CCN(S(=O)(=O)CCN4CC[C@@H](O)C4)C[C@H]3C)nc12 [Example 19, (R)-1-(2-(((3R,4S)-4-((8-ethoxy-7-(1H-pyrazol-4-yl)-[1,2,4]triazolo[1,5-a]pyridin-2-yl)amino)-3-methylpiperidin-1-yl)sulfonyl)ethyl)pyrrolidin-3-ol] |
| ≤ 20 nM | CCOc1c(-c2cn[nH]c2)ccn2nc(N[C@H]3CCN(S(=O)(=O)c4cnn(C)c4)C[C@H]3C)nc12 [Example 20, 8-ethoxy-N-((3R,4S)-3-methyl-1-((1-methyl-1H-pyrazol-4-yl)sulfonyl)piperidin-4-yl)-7-(1H-pyrazol-4-yl)-[1,2,4]triazolo[1,5-a]pyridin-2-amine] |
| ≤ 20 nM | CCOc1c(-c2cn[nH]c2)ccn2nc(N[C@H]3CCN(S(=O)(=O)c4cnn(C)n4)C[C@H]3C)nc12 [Example 21, 8-ethoxy-N-((3R,4S)-3-methyl-1-((2-methyl-2H-1,2,3-triazol-4-yl)sulfonyl)piperidin-4-yl)-7-(1H-pyrazol-4-yl)-[1,2,4]triazolo[1,5-a]pyridin-2-amine] |
| ≤ 20 nM | CS(=O)(=O)N1CCC(Nc2nc3c(-c4ccccc4)c(-c4cn[nH]c4)ccn3n2)CC1 [Example 22, N-(1-(methylsulfonyl)piperidin-4-yl)-8-phenyl-7-(1H-pyrazol-4-yl)-[1,2,4]triazolo[1,5-a]pyridin-2-amine] |
| ≤ 20 nM | CS(=O)(=O)N1CCC(Nc2nc3c(N4CCC(F)CC4)c(-c4cn[nH]c4)ccn3n2)CC1 [Example 23, 8-(4-fluoropiperidin-1-yl)-N-(1-(methylsulfonyl)piperidin-4-yl)-7-(1H-pyrazol-4-yl)-[1,2,4]triazolo[1,5-a]pyridin-2-amine] |

| SMILES | IC50 |
| --- | --- |
| CC(C)COc1c(-c2cn[nH]c2)ccn2nc(NC3CCN(S(C)(=O)=O)CC3)nc12 [Example 3, 8-isobutoxy-N-(1-(methylsulfonyl)piperidin-4-yl)-7-(1H-pyrazol-4-yl)-[1,2,4]triazolo[1,5-a]pyridin-2-amine] | ≤ 20 nM |
| CC(C)COc1c(-c2ccnc3[nH]ccc23)ccn2nc(NC3CCN(S(C)(=O)=O)CC3)nc12 [Example 15, 8-isobutoxy-N-(1-(methylsulfonyl)piperidin-4-yl)-7-(1H-pyrrolo[2,3-b]pyridin-4-yl)-[1,2,4]triazolo[1,5-a]pyridin-2-amine] | ≤ 20 nM |
| CC(C)COc1c(-c2ccnc(N)c2)ccn2nc(NC3CCN(S(C)(=O)=O)CC3)nc12 [Example 16, 7-(2-aminopyridin-4-yl)-8-isobutoxy-N-(1-(methylsulfonyl)piperidin-4-yl)-[1,2,4]triazolo[1,5-a]pyridin-2-amine] | ≤ 20 nM |
